Experiment [1] concerns the target T1, Elongation factor 1-alpha 1 (EEF1A1) (Homo sapiens, UniProt P68104).
T1 sequence (P68104 1-462): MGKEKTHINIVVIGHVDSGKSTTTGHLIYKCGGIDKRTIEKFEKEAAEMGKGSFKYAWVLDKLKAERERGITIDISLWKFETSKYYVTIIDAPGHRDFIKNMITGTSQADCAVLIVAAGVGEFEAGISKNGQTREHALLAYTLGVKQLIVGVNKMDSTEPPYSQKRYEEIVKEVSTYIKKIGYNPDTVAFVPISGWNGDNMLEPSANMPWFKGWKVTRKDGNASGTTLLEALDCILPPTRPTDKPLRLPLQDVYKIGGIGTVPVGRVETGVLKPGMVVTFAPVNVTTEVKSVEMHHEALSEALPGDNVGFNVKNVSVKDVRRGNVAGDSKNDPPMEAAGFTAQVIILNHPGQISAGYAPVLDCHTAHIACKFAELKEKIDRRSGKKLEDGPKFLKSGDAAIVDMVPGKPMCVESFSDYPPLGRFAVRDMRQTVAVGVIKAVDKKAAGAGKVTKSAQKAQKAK
Nature of the experiment: TMT LC-MSMS of 11-labelled proteins. Format: cell-based.

Experiment [2] deals with T2, heat shock protein 75 kDa, mitochondrial (TRAP1) (Homo sapiens, UniProt Q12931).
T2 sequence (Q12931 60-704): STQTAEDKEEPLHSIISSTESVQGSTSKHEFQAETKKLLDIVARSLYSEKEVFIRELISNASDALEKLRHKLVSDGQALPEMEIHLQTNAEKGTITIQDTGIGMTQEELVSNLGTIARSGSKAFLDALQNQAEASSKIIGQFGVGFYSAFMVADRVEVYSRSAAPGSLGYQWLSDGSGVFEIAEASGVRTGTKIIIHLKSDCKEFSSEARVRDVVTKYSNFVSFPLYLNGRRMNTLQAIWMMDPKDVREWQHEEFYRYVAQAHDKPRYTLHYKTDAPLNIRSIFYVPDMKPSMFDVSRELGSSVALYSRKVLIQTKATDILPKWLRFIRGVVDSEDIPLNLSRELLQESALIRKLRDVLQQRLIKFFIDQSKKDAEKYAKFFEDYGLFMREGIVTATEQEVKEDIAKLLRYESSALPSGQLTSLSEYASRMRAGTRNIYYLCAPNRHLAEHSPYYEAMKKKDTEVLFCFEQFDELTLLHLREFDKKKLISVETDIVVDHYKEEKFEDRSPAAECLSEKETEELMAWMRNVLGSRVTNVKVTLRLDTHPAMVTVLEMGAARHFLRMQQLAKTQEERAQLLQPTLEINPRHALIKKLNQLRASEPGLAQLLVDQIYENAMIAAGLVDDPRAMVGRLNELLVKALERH
As to the kind of experiment: TMT LC-MSMS of 11-labelled proteins. The experiment is classed as cell-based.

[3] abbreviates: sheet Merged, SKBR3 cells, 11 0.5 µM 3 h vs DMSO.
Setting [4] is: sheet Merged, SKBR3 cells, 11 0.5 µM 3 h vs with PU-H71 10 µM.

The record followed here is article PMC5951806, “Rapid labelling and covalent inhibition of intracellular native proteins using ligand-directed N-acyl-N-alkyl sulfonamide” (Nature Communications, 2018).

The structures appear in SMILES notation.

With `CC(=O)Oc1ccc2c(c1)Oc1cc(OC(C)=O)ccc1C21OC(=O)c2cc(C(=O)NCCOCCOCCNC(=O)CCCC(=O)N(CC#N)S(=O)(=O)c3ccc(C(=O)NCCCn4c(Sc5cc6c(cc5I)OCO6)nc5c(N)ncnc54)cc3)ccc21` [compound 11], the “Abundance Ratio: (11) / (11 with PU-H71)” value was 0.806 in experiment [1] (Exp3, EEF1A1); 0.803 in experiment [1] (sheet Exp1, SKBR3 cells, 11 0.5 µM 3 h vs with PU-H71 10 µM); 0.83 in experiment [1] (sheet Exp2, EEF1A1); 0.811 in experiment [1] (setting [4]); 0.787 in experiment [2] (Exp3, TRAP1); 0.787 in experiment [2] (setting [4]). For the same compound, the “Abundance Ratio: (11) / (DMSO)” value is listed as 4.916 in experiment [1] (Exp3, EEF1A1); 4.039 in experiment [1] (sheet Exp1, SKBR3 cells, 11 0.5 µM 3 h vs DMSO); 3.879 in experiment [1] (sheet Exp2, EEF1A1); 3.879 in experiment [1] (setting [3]); 2.947 in experiment [2] (Exp3, TRAP1); 2.947 in experiment [2] (setting [3]). The “Abundances (Grouped): 11” value in experiment [1] (Exp3, EEF1A1) is 720.2; in experiment [1] (sheet Exp2, EEF1A1), 725.4; in experiment [2] (Exp3, TRAP1) it was 28. The “Abundances (Grouped): 11 with PU-H71” value was 894 in experiment [1] (Exp3, EEF1A1); 874.4 in experiment [1] (sheet Exp2, EEF1A1); 35.6 in experiment [2] (Exp3, TRAP1, with PU-H71).
